Laboratory results taken from PubChem BioAssay (NCI).
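48-hour exposure; five concentrations; linearly interpolated endpoints. TGI denotes the concentration required for complete inhibition of growth.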

Columns and labels:
Test in all cases: NCI-60 cell line screen, 48 h
OVCAR-5 ovarian = tested on: OVCAR-5 ovarian
MOLT-4 leukemia = tested on: MOLT-4 leukemia
NCI-H226 lung = tested on: NCI-H226 lung
SR leukemia = tested on: SR leukemia
DLD-1 colon = tested on: DLD-1 colon
SN12C renal = tested on: SN12C renal
EKVX NSCLC = tested on: EKVX NSCLC
HOP-92 NSCLC = tested on: HOP-92 NSCLC
KM20L2 colon = tested on: KM20L2 colon
LOX IMVI melanoma = tested on: LOX IMVI melanoma
HCT-116 colon = tested on: HCT-116 colon
ACHN renal = tested on: ACHN renal
DMS 114 small cell lung = tested on: DMS 114 small cell lung
UACC-257 melanoma = tested on: UACC-257 melanoma
K-562 leukemia = tested on: K-562 leukemia
SK-MEL-5 melanoma = tested on: SK-MEL-5 melanoma
CCRF-CEM leukemia = tested on: CCRF-CEM leukemia
RPMI-8226 leukemia = tested on: RPMI-8226 leukemia
SK-MEL-2 melanoma = tested on: SK-MEL-2 melanoma
SK-OV-3 ovarian = tested on: SK-OV-3 ovarian
HL-60(TB) leukemia = tested on: HL-60(TB) leukemia
A549 NSCLC = tested on: A549 NSCLC
M19-MEL melanoma = tested on: M19-MEL melanoma
SNB-78 CNS = tested on: SNB-78 CNS
KM12 colon = tested on: KM12 colon
SNB-75 CNS = tested on: SNB-75 CNS
U251 CNS = tested on: U251 CNS
COLO 205 colon = tested on: COLO 205 colon
NCI-H23 lung = tested on: NCI-H23 lung
NCI-H460 lung = tested on: NCI-H460 lung
HT29 colon = tested on: HT29 colon
MALME-3M melanoma = tested on: MALME-3M melanoma
TK-10 renal = tested on: TK-10 renal
SF-539 CNS = tested on: SF-539 CNS
IGROV1 ovarian = tested on: IGROV1 ovarian
SF-295 CNS = tested on: SF-295 CNS
OVCAR-8 ovarian = tested on: OVCAR-8 ovarian
OVCAR-4 ovarian = tested on: OVCAR-4 ovarian
SF-268 CNS = tested on: SF-268 CNS
HCT-15 colon = tested on: HCT-15 colon
SNB-19 CNS = tested on: SNB-19 CNS
HOP-62 NSCLC = tested on: HOP-62 NSCLC
SW-620 colon = tested on: SW-620 colon
HOP-18 NSCLC = tested on: HOP-18 NSCLC
OVCAR-3 ovarian = tested on: OVCAR-3 ovarian
XF 498 CNS = tested on: XF 498 CNS
786-0 renal = tested on: 786-0 renal
DMS 273 small cell lung = tested on: DMS 273 small cell lung
HCC-2998 colon = tested on: HCC-2998 colon
SK-MEL-28 melanoma = tested on: SK-MEL-28 melanoma
A498 renal = tested on: A498 renal
NCI-H522 lung = tested on: NCI-H522 lung
CAKI-1 renal = tested on: CAKI-1 renal
LXFL 529 NSCLC = tested on: LXFL 529 NSCLC
M14 melanoma = tested on: M14 melanoma
RXF 393 renal = tested on: RXF 393 renal
UACC-62 melanoma = tested on: UACC-62 melanoma
UO-31 renal = tested on: UO-31 renal

For `CC1(C)O[C@@H](CC/C=C/CO)[C@H](CC/C=C/CO)O1`, the TGI (OVCAR-5 ovarian) was greater than 100 µM, the TGI (MOLT-4 leukemia) was greater than 100 µM and the TGI (NCI-H226 lung) was greater than 100 µM. The TGI (SR leukemia) was greater than 100 µM, the TGI (DLD-1 colon) was greater than 100 µM and the TGI (SN12C renal) was greater than 100 µM. It also gave a TGI (EKVX NSCLC) greater than 100 µM, a TGI (HOP-92 NSCLC) greater than 100 µM and a TGI (KM20L2 colon) greater than 100 µM. For the same molecule, the TGI (LOX IMVI melanoma) was greater than 100 µM, the TGI (HCT-116 colon) was greater than 100 µM and the TGI (ACHN renal) was greater than 100 µM. The TGI (DMS 114 small cell lung) was greater than 100 µM, the TGI (UACC-257 melanoma) was greater than 100 µM and the TGI (K-562 leukemia) was greater than 100 µM. The TGI (SK-MEL-5 melanoma) was greater than 100 µM, the TGI (CCRF-CEM leukemia) was greater than 100 µM and the TGI (RPMI-8226 leukemia) was greater than 100 µM. For the same molecule, the TGI (SK-MEL-2 melanoma) was greater than 100 µM, the TGI (SK-OV-3 ovarian) was greater than 100 µM and the TGI (HL-60(TB) leukemia) was greater than 100 µM. The TGI (A549 NSCLC) was greater than 100 µM, the TGI (M19-MEL melanoma) was greater than 100 µM and the TGI (SNB-78 CNS) was greater than 100 µM. The TGI (KM12 colon) was greater than 100 µM, the TGI (SNB-75 CNS) was greater than 100 µM and the TGI (U251 CNS) was greater than 100 µM. For the same molecule, the TGI (COLO 205 colon) was greater than 100 µM, the TGI (NCI-H23 lung) was greater than 100 µM and the TGI (NCI-H460 lung) was greater than 100 µM. For the same molecule, the TGI (HT29 colon) was greater than 100 µM, the TGI (MALME-3M melanoma) was greater than 100 µM and the TGI (TK-10 renal) was greater than 100 µM. It also gave a TGI (SF-539 CNS) greater than 100 µM, a TGI (IGROV1 ovarian) greater than 100 µM and a TGI (SF-295 CNS) greater than 100 µM. The TGI (OVCAR-8 ovarian) was greater than 100 µM, the TGI (OVCAR-4 ovarian) was greater than 100 µM and the TGI (SF-268 CNS) was greater than 100 µM. It also gave a TGI (HCT-15 colon) greater than 100 µM, a TGI (SNB-19 CNS) greater than 100 µM and a TGI (HOP-62 NSCLC) greater than 100 µM. For the same molecule, the TGI (SW-620 colon) was greater than 100 µM, the TGI (HOP-18 NSCLC) was greater than 100 µM and the TGI (OVCAR-3 ovarian) was greater than 100 µM. The TGI (XF 498 CNS) was greater than 100 µM, the TGI (786-0 renal) was greater than 100 µM and the TGI (DMS 273 small cell lung) was greater than 100 µM. It also gave a TGI (HCC-2998 colon) greater than 100 µM, a TGI (SK-MEL-28 melanoma) greater than 100 µM and a TGI (A498 renal) greater than 100 µM. It also gave a TGI (NCI-H522 lung) greater than 100 µM, a TGI (CAKI-1 renal) greater than 100 µM and a TGI (LXFL 529 NSCLC) greater than 100 µM. The TGI (M14 melanoma) was greater than 100 µM.
For `Cn1c(=O)nc2n(-c3cc(Cl)ccc3Cl)c3ccccc3nc-2c1=O`, the TGI (OVCAR-5 ovarian) was 25.7 µM, the TGI (MOLT-4 leukemia) was 28.6 µM and the TGI (NCI-H226 lung) was 22 µM. The TGI (DLD-1 colon) was 16.6 µM, the TGI (SN12C renal) was 16.7 µM and the TGI (EKVX NSCLC) was 13 µM. It also gave a TGI (KM20L2 colon) of 7.9 µM, a TGI (RXF 393 renal) of 34.1 µM and a TGI (HCT-116 colon) of 16.2 µM. It also gave a TGI (ACHN renal) of 13.6 µM, a TGI (DMS 114 small cell lung) of 4.92 µM and a TGI (UACC-257 melanoma) of 5.2 µM. For the same molecule, the TGI (K-562 leukemia) was greater than 100 µM, the TGI (SK-MEL-5 melanoma) was 4.55 µM and the TGI (CCRF-CEM leukemia) was 21.3 µM. For the same molecule, the TGI (RPMI-8226 leukemia) was 33.7 µM, the TGI (SK-MEL-2 melanoma) was 18.1 µM and the TGI (SK-OV-3 ovarian) was 91.9 µM. For the same molecule, the TGI (A549 NSCLC) was 21.9 µM, the TGI (M19-MEL melanoma) was 2.85 µM and the TGI (SNB-78 CNS) was 31.6 µM. The TGI (KM12 colon) was 20.1 µM, the TGI (UACC-62 melanoma) was 3.38 µM and the TGI (SNB-75 CNS) was 24.6 µM. It also gave a TGI (U251 CNS) of 20.4 µM, a TGI (COLO 205 colon) of 6.43 µM and a TGI (UO-31 renal) of 26.4 µM. For the same molecule, the TGI (NCI-H23 lung) was 4.06 µM, the TGI (NCI-H460 lung) was 13.4 µM and the TGI (HT29 colon) was 5.47 µM. For the same molecule, the TGI (MALME-3M melanoma) was 12.2 µM, the TGI (TK-10 renal) was 30.4 µM and the TGI (SF-539 CNS) was 19.5 µM. The TGI (IGROV1 ovarian) was 29.7 µM, the TGI (SF-295 CNS) was 21.2 µM and the TGI (OVCAR-8 ovarian) was 14.4 µM. The TGI (OVCAR-4 ovarian) was 17.8 µM, the TGI (SF-268 CNS) was 30.7 µM and the TGI (HCT-15 colon) was 15.4 µM. It also gave a TGI (SNB-19 CNS) of 13.3 µM, a TGI (HOP-62 NSCLC) of 46.4 µM and a TGI (SW-620 colon) of 6.86 µM. For the same molecule, the TGI (HOP-18 NSCLC) was 25.3 µM, the TGI (OVCAR-3 ovarian) was 9.92 µM and the TGI (XF 498 CNS) was 18.9 µM. For the same molecule, the TGI (786-0 renal) was 34.6 µM, the TGI (DMS 273 small cell lung) was 16.2 µM and the TGI (HCC-2998 colon) was 9.32 µM. The TGI (A498 renal) was 35.7 µM, the TGI (NCI-H522 lung) was 18.8 µM and the TGI (CAKI-1 renal) was 27.8 µM. The TGI (LXFL 529 NSCLC) was 28.3 µM and the TGI (M14 melanoma) was 15.2 µM.
`COc1ccc2c(c1)[n+](=O)c(C(=O)C/C(=N/NC(=O)c1ccccc1O)C(=O)Nc1ccc(Cl)c(C(F)(F)F)c1)c(C)n2[O-]` showed a TGI (OVCAR-5 ovarian) greater than 100 µM, a TGI (MOLT-4 leukemia) greater than 100 µM and a TGI (NCI-H226 lung) greater than 100 µM. It also gave a TGI (DLD-1 colon) greater than 100 µM, a TGI (SN12C renal) greater than 100 µM and a TGI (EKVX NSCLC) greater than 100 µM. The TGI (HOP-92 NSCLC) was greater than 100 µM, the TGI (KM20L2 colon) was greater than 100 µM and the TGI (LOX IMVI melanoma) was greater than 100 µM. For the same molecule, the TGI (RXF 393 renal) was greater than 100 µM, the TGI (HCT-116 colon) was greater than 100 µM and the TGI (ACHN renal) was greater than 100 µM. The TGI (DMS 114 small cell lung) was greater than 100 µM, the TGI (UACC-257 melanoma) was greater than 100 µM and the TGI (K-562 leukemia) was greater than 100 µM. For the same molecule, the TGI (SK-MEL-5 melanoma) was greater than 100 µM, the TGI (CCRF-CEM leukemia) was greater than 100 µM and the TGI (SK-MEL-2 melanoma) was greater than 100 µM. It also gave a TGI (SK-OV-3 ovarian) greater than 100 µM, a TGI (A549 NSCLC) greater than 100 µM and a TGI (M19-MEL melanoma) greater than 100 µM. It also gave a TGI (SNB-78 CNS) greater than 100 µM, a TGI (KM12 colon) greater than 100 µM and a TGI (UACC-62 melanoma) greater than 100 µM. It also gave a TGI (SNB-75 CNS) greater than 100 µM, a TGI (U251 CNS) greater than 100 µM and a TGI (COLO 205 colon) greater than 100 µM. The TGI (UO-31 renal) was 50.5 µM, the TGI (NCI-H23 lung) was greater than 100 µM and the TGI (NCI-H460 lung) was greater than 100 µM. For the same molecule, the TGI (HT29 colon) was greater than 100 µM, the TGI (MALME-3M melanoma) was greater than 100 µM and the TGI (TK-10 renal) was greater than 100 µM. The TGI (SF-539 CNS) was greater than 100 µM, the TGI (IGROV1 ovarian) was greater than 100 µM and the TGI (SF-295 CNS) was greater than 100 µM. It also gave a TGI (OVCAR-8 ovarian) greater than 100 µM, a TGI (OVCAR-4 ovarian) greater than 100 µM and a TGI (SF-268 CNS) greater than 100 µM. For the same molecule, the TGI (HCT-15 colon) was greater than 100 µM, the TGI (SNB-19 CNS) was greater than 100 µM and the TGI (HOP-62 NSCLC) was greater than 100 µM. The TGI (SW-620 colon) was greater than 100 µM, the TGI (HOP-18 NSCLC) was greater than 100 µM and the TGI (OVCAR-3 ovarian) was 87.1 µM. It also gave a TGI (XF 498 CNS) greater than 100 µM, a TGI (786-0 renal) greater than 100 µM and a TGI (DMS 273 small cell lung) greater than 100 µM. It also gave a TGI (HCC-2998 colon) greater than 100 µM, a TGI (SK-MEL-28 melanoma) greater than 100 µM and a TGI (A498 renal) greater than 100 µM. For the same molecule, the TGI (NCI-H522 lung) was greater than 100 µM, the TGI (LXFL 529 NSCLC) was greater than 100 µM and the TGI (M14 melanoma) was greater than 100 µM.
